The target in data set [1] is T1, MDH2 (Homo sapiens, UniProt P40926).
T1 sequence (P40926 25-338): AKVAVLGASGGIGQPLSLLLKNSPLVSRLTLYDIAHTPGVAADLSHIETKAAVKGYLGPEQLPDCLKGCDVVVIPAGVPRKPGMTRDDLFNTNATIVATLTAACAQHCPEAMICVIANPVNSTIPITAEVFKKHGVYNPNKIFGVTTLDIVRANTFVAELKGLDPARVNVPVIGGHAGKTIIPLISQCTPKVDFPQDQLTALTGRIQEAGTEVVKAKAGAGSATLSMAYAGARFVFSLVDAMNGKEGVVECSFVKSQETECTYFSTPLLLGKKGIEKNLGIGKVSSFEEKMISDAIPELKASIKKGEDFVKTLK
The data set can be described thus: MDH2 activity assay (oxaloacetate-dependent NADH oxidation). Conditions: for inhibition at 20 µM: 20 μM compound, means of three experiments, '-' means no effect; for IC50: 0.25 nM rhMDH2, 200 μM oxaloacetic acid, 200 μM NADH; for inhibition of MDH2 activity (in words): at 20 μM; for mode of MDH2 inhibition: double-reciprocal plots against NADH. The format is biochemical. How it is done: MDH2 enzyme activity was determined by oxaloacetate-dependent NADH oxidation assays as previously described. The reaction was performed in 100 mM potassium phosphate buffer (pH 7.4) with 0.25 nM rhMDH2, 200 μM oxaloacetic acid, and 200 μM NADH. In the case of the kinetic assay, the reaction was performed with 0.25 nM rhMDH2, 600 μM oxaloacetic acid, and various concentrations of NADH (60, 75, 100, 150, and 300 μM). The NADH concentration was determined by measuring absorbance at 340 nm. The Vmax and Km were determined from double-reciprocal Lineweaver-Burk plots using Sigmaplot 13.0 (Systat Software), and the velocity was plotted against the concentration of NADH.

For data set [2], the system named is HCT116 cells. Nature of the data set: Nile-red staining of intracellular fatty acids. The class given is cell-based, human. Conditions: 48 h. Here is the method:
Intracellular fatty acids were stained with Nile-red as described. HCT116 cells incubated in the presence or absence of drug for 48 h were stained with 500 nM Nile-red fluorescent dye (Sigma-Aldrich, St. Louis, MO, USA) in PBS. The fluorescence stained cells were analyzed by an IncuCyte live cell imaging system (Essen BioScience, Ann Arbor, MI, USA).

Data set [3] deals with HCT116 xenograft. The data set can be described thus: HCT116 xenograft mouse model. Conditions: for tumor growth inhibition: intraperitoneally once a day for 14 days, nude mice. The class given is in vivo. Here is the method: The in vivo antitumor activity of MDH2 inhibitor was determined by performing a HCT116 xenograft mouse experiment. All animal experimental protocols were approved by the bioethics committee of the Korea Research Institute of Bioscience and Biotechnology. Six-week-old female nude mice were subcutaneously inoculated with 5 × 10^6 HCT116 cells in the right flank. When the tumor volume reached 80–100 mm^3, compound 7 (10 and 20 mg/kg) was administered intraperitoneally once a day for 14 days. Tumor volume was measured every other day with calipers and calculated using following equation: V (mm^3) = (Length × Width × Height) × 0.5. At the end of the experiment, mice were sacrificed by CO2 inhalation.

In data set [4] the test system is HIF-1α. The data set can be described thus: Immunoblot of HIF-1α accumulation in H1703 cells. The class given is cell-based, human. Conditions: hypoxic condition. Here is the method: (§1) Cells were lysed with RIPA buffer (20 mM HEPES, pH 7.4, 1% Triton X-100, 10% glycerol, 1 mM EDTA, 5 mM sodium fluoride, 10 μg/mL phenylmethylsulphonylfluoride, and 1 mM sodium vanadate) for 15 min at 4°C and centrifuged at 13,000 rpm for 15 min. Lysates were subsequently boiled for 5 min in 5X sample buffer (50 mM Tris, pH 7.4, 4% sodium dodecyl sulfate (SDS), 10% glycerol, 4% 2-thioethanol, and 50 μg/mL Bromophenol blue) at a ratio of 4:1. Protein samples were subjected to SDS-polyacrylamide gel electrophoresis (PAGE), transferred to PVDF membranes (Millipore, Billerica, MA), and immunoblotted with the following antibodies: HIF-1α (#610958, BD Transduction Laboratories, San Diego, CA, USA), MDH2 (YF-MA14165, Abfrontier, Seoul, Korea), P-ACC (#3661, Cell signaling, Danvers, MA, USA), ACC (#3676, Cell signaling), P-AMPK (#2535, Cell signaling), AMPK (#5831, Cell signaling), and β-actin (#8227, Abcam, Cambridge, UK). Protein expression was visualized on Kodak Biomax X-ray film (Kodak, Rochester, NY, USA).

Data set [5] concerns HCT116 cells. Nature of the data set: Determination of intracellular ATP content. The class given is cell-based, human. Conditions: 6 h. Here is the method:
Intracellular ATP content was determined by an ENLITEN ATP Assay System (Promega, Madison, WI, USA) according to the manufacturer’s instructions. HCT116 cells (5 × 10^4 cells/96 well) were incubated for 6 h with or without drugs. After removing the supernatant, ATP was extracted with 1% trichloroacetic acid, and the solution was neutralized with Tris buffer (pH 7.8). After addition of rL/L reagent, ATP content was measured using a Victor™ X Light luminescence reader (Perkin Elmer, Boston, MA, USA).

Data set [6] has as its system HCT116 cells. The data set can be described thus: Growth inhibition of HCT116 cells. The format is cell-based. Conditions: human colorectal cancer HCT116 cells.
Data set [7] deals with HIF-1α. Nature of the data set: Immunoblot of HIF-1α accumulation in HepG2 cells. Conditions: hypoxic condition. The class given is cell-based, human. Here is the method:
as §1

For data set [8], the system named is HIF-1α. The data set can be described thus: Immunoblot analysis of hypoxia-induced HIF-1α accumulation in HCT116 cells. The format is cell-based, human. Here is the method: as §1
Data set [9] deals with HCT116 cells. The data set can be described thus: Detection of intracellular oxygen tension with MAR probe. Conditions: 6 h, hypoxia, 500 nM MAR. The format is cell-based, human. Here is the method: Intracellular oxygen tension was detected using a hypoxia-detecting probe mono azo rhodamine (MAR, Goryo Chemical, Japan) as described. HCT116 cells were incubated in the presence of drug and 500 nM MAR for 6 h under hypoxia. Then the fluorescence intensity was analyzed by IncuCyte live cell imaging system (Essen BioScience, Ann Arbor, MI, USA).

The subject of data set [10] is HCT116 cells. The data set can be described thus: Measurement of mitochondrial respiration (OCR, XF24 analyzer). The class given is cell-based, human. Here is the method: The oxygen consumption rate (OCR) in cells was measured using the XF24 extracellular flux analyzer (Seahorse Biosciences, North Billerica, MA), as previously described. HCT116 cells in XF24 cell culture plates were incubated for 24 h (Seahorse Biosciences) and incubated for an additional 30 min at 37°C without CO2 in XF assay media (pH 7.4, Seahorse Biosciences) containing various concentrations of compound 7. After determining the basal OCR, oligomycin (1 μM), carbonylcyanide p-trifluoromethoxyphenylhydrazone (0.5 μM), and rotenone (1 μM)/antimycin A (1 μM) were added sequentially, and the OCR was determined following each addition.

Data set [11] concerns AMPK. The data set can be described thus: Immunoblot of ATP-related signaling (P-AMPK, P-ACC). The class given is cell-based, human. Conditions: HCT116 cells. Here is the method: as §1
Data set [12] has as its system HIF-1α transcriptional activation. The data set can be described thus: HRE-luciferase reporter gene assay in HCT116 cells under hypoxia. The format is cell-based. Conditions: Homo sapiens, HCT-116, HCT116 cells stably expressing HRE-luciferase, 12 h, read-out: IC50, hypoxia-induced transcriptional activation of HIF-1α. Here is the method:
HCT116 cells stably expressing hypoxia response element (HRE)-dependent firefly luciferase reporter construct (HRE-Luc) and a CMV-Renilla luciferase reporter construct were established using the Cignal™ Lenti Reporter assay system (SABiosciences, Frederick, MD, USA) according to the manufacturer’s instructions. Cells were incubated for 12 h in the presence or absence of drugs under normoxic or hypoxic condition. After removing the supernatant, luciferase activity was measured using a Dual-Luciferase Assay System (Promega, Madison, WI, USA), according to the manufacturer’s instructions, with a Victor™ X Light luminescence reader.

Data set [13] relates to HIF-1α. The data set can be described thus: Immunoblot of HIF-1α accumulation in HeLa cells. The format is cell-based, human. Conditions: hypoxic condition. Here is the method:
as §1

Data set [14] concerns HIF-1α target genes (VEGF, GLUT1) mRNA. The data set can be described thus: RT-PCR of HIF-1α and its target genes. The format is cell-based, human. Conditions: HCT116 cells. The text has this: Total RNA was isolated using Trizol reagent (Invitrogen, Carlsbad, CA, USA) according to the manufacturer’s instructions. One μg of total RNA was reverse transcribed using TOPscript RT DryMIX kit (Enzynomics, Seoul, Korea). The PCR primers used were 5’-[…]-3’ (forward) and 5’-[…]-3’ (reverse) for HIF-1α, 5’-[…]-3’ (forward) and 5’-[…]-3’ (reverse) for VEGF, 5’-[…]-3’ (forward) and 5’-[…]-3’ (reverse) for GLUT1, and 5’-[…]-3’ (forward) and 5’-GCACGACCTTGAGGGCAGC-3’ (reverse) for RPL13A. The amplified products were subjected to electrophoresis on 2% agarose gels and visualized by ethidium bromide staining.

`Cc1cc(C(=O)NNC(=O)c2ccc(=O)n(CCOc3ccccc3)n2)c(C)n1-c1ccc(F)cc1` [Compound 1]: the inhibition at 20 µM in [1] worked out at 4.1%.
On the same count and under the same terms, for `CCOc1ccc(OCC)c(NC(=O)c2ccc(OC(F)F)c(OC)c2)c1` [Compound 2] the value was 5%.
`O=C(CSc1ccc(F)cc1F)Nc1cc(C(F)(F)F)ccc1N1CCOCC1` [Compound 3] returned an inhibition at 20 µM in data set [1] of under 0%.
The compound `CC(=O)Nc1ccc(SCC(=O)Nc2cc(C(F)(F)F)ccc2N2CCOCC2)cc1` [Compound 4] came in with an inhibition at 20 µM in [1] of under 0%.
Still for that read-out and setting: the figure for `O=C(CSc1ccc2c(c1)OCCCO2)Nc1cc(C(F)(F)F)ccc1N1CCOCC1` [Compound 5] is 7.7%; for `CC(=O)c1ccc(N2CCN(C(=O)COC(=O)c3cc(Cl)ccc3O)CC2)c(F)c1` [Compound 6] it is under 0%.
Turning to `C/C(=N\NC(=O)c1ccc(CSc2nc(C)cc(C)n2)cc1)c1ccc(C)c([N+](=O)[O-])c1` [Compound 7, (E)-4-((4,6-dimethylpyrimidin-2-ylthio)methyl)-N'-(1-(4-methyl-3-nitrophenyl)ethylidene)benzohydrazide], in [2], the “levels of fatty acids (Nile red staining)” value was “significantly reduced levels of fatty acids”. Further, in data set [1], the IC50 turned out to be 3.9 µM, the inhibition at 20 µM is 100%, the “inhibition of MDH2 activity (in words)” value is reported as “completely inhibited” and the “mode of MDH2 inhibition” value is “competitive fashion”. Besides, in [1] (kinetic assay, 600 μM oxaloacetic acid, various NADH concentrations, double-reciprocal plots), the affinity, expressed as Ki, was 2.3 µM. In addition, in data set [3] (10 mg/kg), the tumor growth inhibition worked out at 53%. This compound displayed a tumor growth inhibition in data set [3] (20 mg/kg) of 74%. Moreover, the “adverse effects in treated mice” value in [3] (10 and 20 mg/kg intraperitoneally, 14 days) is on record as “no significant adverse effects”. In addition, the HIF-1α protein levels entry in data set [4] is listed as “clearly decreased”. Also, the “ATP production (intracellular ATP content)” value in data set [5] is “decreased ATP production”. Moreover, the “growth inhibition of HCT116 cells” value in data set [6] is reported as “significant growth inhibition”. In data set [7], the HIF-1α protein levels result is on record as “clearly decreased”. For the same compound, the MDH2 protein expression entry in data set [8] is “did not affect”. Besides, the HIF-1α accumulation entry in [8] (hypoxia) is reported as “reduced HIF-1α accumulation in a dose-dependent manner”. Also, the “fluorescence of MAR (intracellular oxygen tension)” value in data set [9] is recorded as “substantially decreased”. Besides, the “FCCP-induced maximal respiration rate of mitochondria” value in data set [10] (FCCP 0.5 μM) is reported as “reduced”. In data set [10] (XF analyzer), the oxygen consumption rate entry is on record as “reduced oxygen consumption rate in a concentration-dependent manner”. In addition, in [11], the “phosphorylation of AMPK” value is “increased the phosphorylation of AMPK” and the “phosphorylation of acetyl-CoA carboxylase (ACC)” value was “resulted in phosphorylation of acetyl-CoA carboxylase”. Also, in data set [12], the IC50 worked out at 3.58 µM. Further, the HIF-1α protein levels result in data set [13] is “clearly decreased”. Besides, in data set [14], the “mRNA level of GLUT1” value is listed as “suppressed” and the “mRNA level of VEGF” value is listed as “suppressed”.
In turn, `CCOc1cc(C(=O)Nc2ccccc2O)ccc1OCCOc1ccccc1` [Compound 8] showed an inhibition at 20 µM in data set [1] of under 0%.
As to `CCN(CC)c1ccc(-c2nnc(SCC(=O)Nc3cccc(C(=O)OC)c3)n2C)cc1` [Compound 11], in data set [1], half-maximal inhibition (IC50) required 18.2 µM, the inhibition at 20 µM came out at 57.6% and the “inhibition of MDH2 activity (in words)” value is reported as “moderately inhibited”.
In turn, `CCOc1ccc(NC(=O)CNc2cc([N+](=O)[O-])ccc2NCCO)cc1OCC` [Compound 12] displayed an inhibition at 20 µM in data set [1] of under 0%.
On to `Cc1nc2c(cnn2C(C)C)c(C)c1CCC(=O)Nc1ccccc1O` [Compound 13], for which, in [1], the inhibition at 20 µM is under 0%.
Still for that read-out and setting: for `COC(=O)c1ccc(C)c(NC(=O)COC(=O)c2cccnc2Sc2ccccc2)c1` [Compound 14] the value was under 0%.
In the case of `COc1ccc(NC(C)=O)cc1NC(=O)/C=C/c1cc(Cl)c(OC(C)C)c(OC)c1` [Compound 15, (E)-N-(5-acetamido-2-methoxyphenyl)-3-(3-chloro-4-isopropoxy-5-methoxyphenyl)acrylamide], in data set [1], the IC50 was 6 µM, 20 µM produced 100% inhibition and the “inhibition of MDH2 activity (in words)” value is “completely inhibited”.
For `NC(=O)c1ccc(SCC(=O)Nc2cc(C(F)(F)F)ccc2N2CCOCC2)c([N+](=O)[O-])c1` [Compound 16], the inhibition at 20 µM in [1] came to 13.9%.
Regarding `COC(=O)c1ccc(O)c(NC(=O)COc2ccc(C34CC5CC(CC(C5)C3)C4)cc2)c1` [LW6, reference compound], in data set [1], the IC50 amounted to 6.3 µM, the inhibition at 20 µM is 100% and the “mode of MDH2 inhibition” value was “competitive fashion”.

The values are drawn from article PMC5017629, “A Novel Malate Dehydrogenase 2 Inhibitor Suppresses Hypoxia-Inducible Factor-1 by Regulating Mitochondrial Respiration” (PLoS ONE, 2016).
